In patent publication US12318400B2, “Brown and beige adipocyte activating agent containing D-allulose as active ingredient” (NATIONAL UNIVERSITY CORPORATION KAGAWA UNIVERSITY, priority 2018, dated 2025):
Entries after “also recorded” stand apart in the source; their conditions may differ.

Legend:
[1] = tested on: UCP-1, PPAR-α, PGC-1α; experiment: Example 1: expression levels of UCP-1, PPAR-α and PGC-1α as activation of brown adipocytes; format: in vivo, mice; conditions: HFD+2% D-allulose vs HFD
Description: (§1) In Examples of the present invention, activation of brown adipocytes was evaluated by the expression level of UCP-1, PPAR-α, or PGC-1α. The influence of administration of D-allulose, one of rare sugars, on brown adipocytes (BAT: abbreviation of brown adipose tissue) was studied. The experiment was performed using 6-week mice and the mice were divided into 3 groups, each group having 5 mice. The treatment was made as follows for 8 weeks. • (1) A group of normal diet and drinking of water (Normal food) • (2) A group of high fat diet and drinking of water (HFD) • (3) A group of high fat diet and drinking of water containing 2% D-allulose (D-allulose) (HFD+2% D-allulose) 2. Evaluation item: • (1) Transition of Body Weight • Transition of Blood Glucose • (2) Size and weight of brown adipocytes under the scapula • (3) Pathological evaluation of the morphological change in brown adipocytes • (4) Evaluation of UCP-1, PPAR-α, and PGC-1α expression levels as activation of brown adipocytes 3.

[2] = tested on: brown adipocytes; experiment: Example 3: marker expression in brown adipocytes of HFD-loaded mice after D-allulose; format: in vivo
Description: (§2) (Purpose) The influence of D-allulose administration to mice on their brown adipose tissue is confirmed. In addition, differentiation of beige adipocytes is studied with a change in UCP-1 expression or the like as a marker. Mice are divided into two groups, each group having five mice. Eight-week-old mice of each group are loaded with a high fat diet (HFD). From four weeks after loading with HFD, one of the groups is loaded with HFD continuously. To the other group, D-allulose (0.2 mg/body weight g/day) together with HFD is administered to the stomach by a sonde. Until week 10, the body weight, food intake, water intake, and blood glucose level are monitored. The administration of D-allulose has a possibility of contributing a weight loss by inducing beige adipocytes and activating brown adipocytes. • 9) With regard to the details of the induction of beige adipocytes and the activation of brown adipocytes caused by D-allulose administration, expression of UCP-1 and Prdm16 which are genes involved in thermogenesis, Pgcl-α and Tfam which are genes reflecting the mitochondrial function of organelle involved in thermogenesis, and PPARγ which is a gene related to the differentiation of fat are investigated and the results are shown in FIG. 19.

[3] = tested on: beige adipocytes; experiment: Example 3: marker expression in beige adipocytes of HFD-loaded mice after D-allulose; format: in vivo
Description: as §2

[4] = tested on: cell line derived from a single clone from BAT of the adult supraclavicular fossa; experiment: Differentiation induction into beige adipocytes in cells (BAT-protocol, WAT-protocol) with addition of D-allulose; format: cell-based
From the text: FIG. 21 is a drawing for describing, with regard to an experiment using cells (a single-clone-derived cell strain is established from BAT of adult supraclavicular fossa portion and is used as a research model of differentiation induction into beige adipocytes), two protocols, that is, BAT-protocol and WAT-protocol, for inducing beige adipocytes. FIG. 22 is a drawing for describing, in an experiment using cells, protocols including two protocols, that is, BAT-protocol and WAT-protocol, for inducing beige adipocytes and further including addition of D-allulose. […] They are presumed to participate in the activation of brown adipocytes. • 10) FIG. 20 is a drawing for describing two protocols for inducing beige adipocytes, that is, BAT-protocol and WAT-protocol used in an experiment using cells (a cell line derived from a single clone from BAT of the adult supraclavicular fossa is established and used as a research model of the differentiation induction into beige adipocytes). FIG. 21 is a drawing for describing a protocol including two protocols for inducing beige adipocytes, that is, BAT-protocol and WAT-protocol and further including addition of D-allulose in an experiment using cells.

[5] = tested on: brown adipocytes (BAT); experiment: Example 1: high fat diet mice given 2% D-allulose drinking water, body weight, blood glucose and brown adipocytes; format: in vivo
Description: as §1, with “The” for “In Examples of the present invention, activation of brown adipocytes was evaluated by the expression level of UCP-1, PPAR-α, or PGC-1α. The”

[6] = tested on: brown adipose tissue (BAT); format: in vivo, mice
Description: FIG. 10 is a drawing for describing the procedure (protocol) of the experiment of Example 3. Mice are divided into two groups, with one group having five mice. Eight-week-old mice of each group are loaded with a high fat diet (HFD). From four weeks after loading with HFD, one of the groups is loaded with HFD continuously. To the other group, D-allulose (0.2 mg/body weight g/day), in addition to HFD, is administered to the stomach by a sonde. Until week 10, the body weight, food intake, water intake, and blood glucose level are monitored. Glucose was intraperitoneally administered and the blood glucose level after 0, 15, 30, 60, 90, and 120 minutes were measured.

[7] = tested on: type 2 diabetic patients; experiment: Example 2: human clinical test of D-allulose (D-psicose) in type 2 diabetic patients; format: in vivo
From the text: Type 2 diabetic patients unable to get sufficient effects by any of the following treatments (HbA1c: 6.5% or more) […] • 1) Only diet therapy and exercise therapy • 2) Drug therapy in addition to diet therapy and exercise therapy <Exclusion Standards> • 1) Patients having a contraindication to D-allulose (D-psicose) administration • 2) Patients who are participating in another clinical trial • 3) Pregnant women, parturients, lactating women, or women who may be pregnant • 4) Patients having 8% or more HbA1c and poor in blood glucose control • 5) Patients recognized to have severe renal dysfunction (serum creatinine level: 1.5 mg/dl or more) • 6) Patients having another severe complication <Experimenting Method> D-allulose (D-psicose) powders: provided as sticks each containing 5 g/pack (product of Rare Sweet) It was orally administered with 5 g per dose three times a day. Twelve type 2 diabetic patients (4 male cases, 8 female cases) who could be observed for 3 months were compared for general findings and blood test before administration and 12 weeks after administration (Wilcoxon signed rank test).

[8] = classical brown adipose tissue, HFD-loaded mice
[9] = presence or absence of D-allulose
[10] = 6-week mice, HFD+2% D-allulose water, 8 weeks, vs HFD group
[11] = HFD mice, D-allulose administered group
[12] = after administration vs before administration
[13] = before vs 12 weeks after administration, 5 g three times a day

In the case of `O=C(CO)[C@H](O)[C@H](O)[C@H](O)CO` [D-allulose], the PGC-1α expression level [1] is reported as “induced more strongly”, the PPAR-α expression level [1] is reported as “induced more strongly” and the UCP-1 expression level [1] is reported as “induced UCP-1 further”. The Prdm16 gene expression ([2]; brown adipocytes, gene panel) was “increase”, the Tfam gene expression ([2]; brown adipocytes, gene panel) was “increase” and the UCP-1 gene expression ([2]; brown adipocytes, gene panel) was “increase”. The “UCP-1 mRNA expression” value [2, 8] was “increased”, the UCP-1 protein expression [2, 8] was “increased” and the “UCP-1 mRNA expression” value ([3]; HFD-loaded mice) was “significantly increased”. The UCP-1 protein expression ([3]; HFD-loaded mice) was “significantly increased”, the PPARγ gene expression ([3]; gene panel) was “increased” and the Pgcl-α gene expression ([3]; gene panel) was “increased”. The Prdm16 gene expression ([3]; gene panel) was “increased”, the Tfam gene expression ([3]; gene panel) was “increased” and the UCP-1 gene expression ([3]; gene panel) was “increased”. For the same compound, the “Expression of all the markers” value ([4]; D-allulose administered group, markers UCP-1, Prdm16, Pgc-1α, tfam, cox8b, PPARγ) was “significantly increased”, the PPARγ expression ([4]; WAT-protocol) was “enhances the expression” and the Pgc-1α expression ([4]; WAT-protocol) was “enhances the expression”. The Prdm16 expression ([4]; WAT-protocol) was “enhances the expression”, the UCP-1 protein expression ([4]; WAT-protocol) was “slightly enhances” and the “oil-red-O (fat staining)” value ([4]; addition of D-allulose to the differentiation inducing protocol) was “promotes”. For the same compound, the PPARγ expression ([4]; both differentiation protocols) was “enhances expression of PPARγ”, the PPARγ expression [4, 9] was “increased” and the UCP-1 expression [4, 9] was “increased”. The “Transition of blood glucose” value [5, 10] was “a decrease in blood glucose was recognized”, the “Transition of body weight” value [5, 10] was “a decrease in body weight was observed” and the “Size and weight of brown adipocytes under the scapula” value ([5]; HFD+2% D-allulose, 8 weeks, vs HFD group) was “an increase in brown adipocytes was recognized”. For the same compound, the “Pathological evaluation of the morphological change in brown adipocytes” value ([5]; HFD+2% D-allulose, tissue staining, vs HFD group (steatosis)) was “improved to have almost a normal state; also recorded: almost morphologically similar to that of the normal diet intake group”, the “Increasing degree of body weight” value ([6]; HFD mice, D-allulose 0.2 mg/body weight g/day by sonde, from week 2 after administration is started) was “lowers significantly” and the “Fasting blood glucose level” value ([6]; HFD mice, D-allulose 0.2 mg/body weight g/day, from week 3 after administration is started) was “a reduction in fasting blood glucose level is observed”. The “Area of brown adipocytes (BAT)” value [6, 11] was “increase”, the “Weight of brown adipocytes (BAT)” value [6, 11] was “increase” and the “Blood glucose level in the glucose loading test” value ([6]; after 10 weeks, glucose intraperitoneally, after 90 and 120 minutes, vs control group) was “significantly decreases”. The Food intake ([6]; mouse, in vivo) was “no significant change”, the Water intake ([6]; mouse, in vivo) was “no significant change” and the TNF-α level ([7]; 2 months after administration) was “significant decrease”. The “Body weight decrease on average” value ([7]; 5 g three times a day orally, 3 months after administration, 12 patients) was 1 kg, the Body weight ([7]; 5 g three times a day orally, after 3 months) was “significant decrease in body weight” and the MCP-1 level [7, 12] was “significantly decreased”. The TNF-α level [7, 12] was “significantly decreased”, the GA [7, 13] was “No significant difference” and the HbA1c [7, 13] was “No significant difference”. The adiponectin [7, 13] was “No significant difference” and the leptin [7, 13] was “No significant difference”.
